In ChEMBL document CHEMBL3880397, “Glucopyranosyloxypyrazole derivatives and use thereof in medicines” (2004):

How the values were obtained:
Rattus norvegicus [1] = test: Reduction in urinary glucose excretion in overnight fasted Sprague-Dawley rat assessed as urinary glucose concentration per 200 g of body weight per 24 hours at 3 mg/kg, po; type: functional
Rattus norvegicus [2] = test: Reduction in urinary glucose excretion in overnight fasted Sprague-Dawley rat assessed as urinary glucose concentration per 200 g of body weight per 24 hours at 10 /kg, po; type: functional
Rattus norvegicus [3] = test: Reduction in urinary glucose excretion in overnight fasted Sprague-Dawley rat assessed as urinary glucose concentration per 200 g of body weight per 24 hours at 1 mg/kg, po; type: functional
[4] = Oral bioavailability in Sprague-Dawley rat at 10 mg/kg after 15 to 240 mins by LC-MS/MS method; type: ADME, organism-based; details: in vivo
[5] = Oral bioavailability in Sprague-Dawley rat at 10 mg/kg after 15 to 240 mins by HPLC method; type: ADME, organism-based; details: in vivo
[6] = Toxicity in ICR mouse assessed as induction of mouse mortality by measuring death incidence at 2000 mg/kg, po measured up to 24 hrs post dose; type: organism-based; details: in vivo

SMILES | bioavailability [4] [%] | bioavailability [5] [%] | Activity (Rattus norvegicus [1]) [mg] | Activity (Rattus norvegicus [2]) [mg] | Activity (Rattus norvegicus [3]) [mg] | Activity [6]
Cc1c(Cc2ccc(OC(C)C)cc2)c(O[C@@H]2O[C@H](COC(=O)OCC(C)C)[C@@H](O)[C@H](O)[C@H]2O)nn1C(C)C | 32 | – | – | – | – | –
CSc1ccc(Cc2c(O[C@@H]3O[C@H](CO)[C@@H](O)[C@H](O)[C@H]3O)n[nH]c2C(F)(F)F)cc1 | – | 11 | – | – | – | Non-Toxic
CCOC(=O)OC[C@H]1O[C@@H](Oc2nn(C(C)C)c(C)c2Cc2ccc(OC(C)C)cc2)[C@H](O)[C@@H](O)[C@@H]1O [REMOGLIFLOZIN ETABONATE] | 27 | – | 28.3 | 127.5 | 1.6 | –

Second part, led by results:

bioavailability [4] [%] | bioavailability [5] [%] | SMILES | Activity (Rattus norvegicus [1]) [mg] | Activity (Rattus norvegicus [2]) [mg] | Activity (Rattus norvegicus [3]) [mg] | Activity [6]
27 | – | COC(=O)OC[C@H]1O[C@@H](Oc2nn(C(C)C)c(C)c2Cc2ccc(OC(C)C)cc2)[C@H](O)[C@@H](O)[C@@H]1O | 36.8 | 167.3 | 1.7 | –
– | 0 | Cc1[nH]nc(O[C@@H]2O[C@H](CO)[C@@H](O)[C@H](O)[C@H]2O)c1Cc1ccc(OC(C)C)cc1 | – | – | – | –
– | 15 | Cc1[nH]nc(O[C@@H]2O[C@H](CO)[C@@H](O)[C@H](O)[C@H]2O)c1Cc1ccc(C(C)C)cc1 | – | – | – | –
